Experimental data: patent US20250090572A1 (priority 2020, published 2025)

How the values were obtained:
SARS-CoV-2 spike protein = SARS-CoV-2 spike protein (Severe acute respiratory syndrome coronavirus 2, UniProt P0DTC2); format: binding; settings: spike protein 50 nM, polysaccharide 1 μM
[1] = system: Pseudovirus particles containing surface Wuhan-Hu-1 SGP; format: cell-based, SARS-CoV-2

Substance	Binding inhibition (SARS-CoV-2 spike protein; competitive binding inhibition between polysaccharide-spike protein complex and heparin-SPR chip) [%]	competition with immobilized heparin for spike protein binding (SARS-CoV-2 spike protein)	IC50 [1] [µg/mL]
heparin	82 ± 7.5	competed with heparin for spike protein binding	4.6
pentosan polysulfate [PPS]	–	–	1.6
